According to patent publication US20080279932A1, “Compounds” (priority 2005, published 2008):
Marks after values point to notes of the source that are not given here.

Columns and labels:
[1] = cited from earlier work; for Dissociation Constant (pKa's), first value: first pKa of the salt-forming acid (counter-ion); for Dissociation Constant (pKa's), second value: second pKa of the salt-forming acid (counter-ion)
[2] = Stability of bulk material with excipients for 2 weeks at 50 C and 50 C/75% r.h. (HPLC assay); assay type: physicochemical; details: for HPLC Assay Results (External Standard): in % (unit assumed); for stability compared with the free base of vildagliptin: bulk and excipient mixtures, 2 weeks
Method: Stability of Bulk Material with Excipients for 2 week at 50 C and 50 C/75% r.h.
Procedure for Dry Mixtures: 25 mg of free base drug substance was weighed into sample tube and approximately 2.5 grams of mixture A, or 25 mg of Lactose was added to the tube. Weight adjustments were made for each salt.
(§1) One sample preparation per condition and one injection per sample.
Controls: A control of the drug substance with the excipients will be prepared and analyzed as a time zero data point and to test the efficiency of extracting the drug substance from the excipients.
Mixture A: (oral) mannitol/Avicel PH 102/Cutina HR 57:38:5 (m/m/m)

[3] = Racemization study; assay type: physicochemical
From the text: The free base in water chemically degraded and detection of racemization was not possible.

[4] = Forced decomposition (HPLC assay, 3 days); assay type: physicochemical; details: for HPLC Assay Results (External Standard): in % (unit assumed)
Method: Procedure: Weigh 25 mg drug substance to a test tube and add 5 ml of appropriate solution.
as §1
Dilute sample to 1 mg/mL with water for HPLC analysis.
All salt forms were tested in bulk and water.
If the newer gradient method is selected then the order of elution of the acid degradation product and the amide degradation product are reversed, with the acid degradation product eluting first about 1.8 minutes and the amide degradation product eluting second about 2.5 minutes. Only the extended stability (3 month) samples were analyzed with the gradient HPLC method.

[5] = Dissociation constant (pKa's) of LAF237 free base and salt-forming acids; assay type: physicochemical; details: LAF237 free base
[6] = 1% in mixture A Dry Granulated, 2 weeks at 50/75% r.h.
[7] = 1% in mixture A Dry Granulated, 2 weeks at 50° C.
[8] = 1% in mixture A Dry Granulated, t0
[9] = 50% in Lactose Dry Granulated, 2 weeks at 50/75% r.h.
[10] = 50% in Lactose Dry Granulated, 2 weeks at 50° C.
[11] = 50% in Lactose Dry Granulated, t0

Compound: tartarate
- Dissociation Constant (pKa's), first value [1]: 2.98
- Dissociation Constant (pKa's), second value [1]: 4.34

Compound: Hydrochloride Salt of Vildagliptin [Example 1]
- HPLC Assay Results (External Standard) [2, 6]: 95.5
- HPLC Assay Results (External Standard) [2, 7]: 96.6
- HPLC Assay Results (External Standard) [2, 8]: 97.3
- HPLC Assay Results (External Standard) [2, 9]: 98.7
- HPLC Assay Results (External Standard) [2, 10]: 99.7
- HPLC Assay Results (External Standard) [2, 11]: 100.8
- HPLC Assay Results (External Standard) ([2]; Bulk, 2 weeks at 50/75% r.h.): 99.6
- HPLC Assay Results (External Standard) ([2]; Bulk, 2 weeks at 50° C.): 100.5
- HPLC Assay Results (External Standard) ([2]; Bulk, t0): 100.7
- stability compared with the free base of vildagliptin [2]: better stability
- racemization ([3]; drug in the solid state): no sign of racemization
- racemization ([3]; in solution in water, 80° C.): no sign of racemization
- racemization ([3]; in solution in water, ambient): no sign of racemization
- HPLC Assay Results (External Standard) ([4]; Bulk, 80° C. (3-day)): 98.8
- HPLC Assay Results (External Standard) ([4]; Bulk, ambient (3-day)): 98.8
- HPLC Assay Results (External Standard) ([4]; H2O, 80° C. (3-day)): 95.3
- HPLC Assay Results (External Standard) ([4]; H2O, ambient (3-day)): 99.9
- stability in water ([4]; water at 80° C. after 3 days): remain stable

Compound: N#C[C@@H]1CCCN1C(=O)CNC12CC3CC(CC(O)(C3)C1)C2 [Free Base, (S)-1-[(3-hydroxy-1-adamantyl)amino]acetyl-2-cyano-pyrrolidine, reference compound]
- HPLC Assay Results (External Standard) [2, 6]: 83.8*
- HPLC Assay Results (External Standard) [2, 7]: 94.2*
- HPLC Assay Results (External Standard) [2, 8]: 98.1*
- HPLC Assay Results (External Standard) [2, 9]: 96.5
- HPLC Assay Results (External Standard) [2, 10]: 98.9
- HPLC Assay Results (External Standard) [2, 11]: 100.7
- HPLC Assay Results (External Standard) ([2]; Bulk, 2 weeks at 50/75% r.h.): 98.7
- HPLC Assay Results (External Standard) ([2]; Bulk, 2 weeks at 50° C.): 98.6
- HPLC Assay Results (External Standard) ([2]; Bulk, t0): 100.0
- % loss in assay value ([2]; in the presence of mixture A): large losses
- racemization ([3]; drug in the solid state): no sign of racemization
- HPLC Assay Results (External Standard) ([4]; Bulk, 80° C. (3-day)): 100.3
- HPLC Assay Results (External Standard) ([4]; Bulk, ambient (3-day)): 99.9
- HPLC Assay Results (External Standard) ([4]; H2O, 80° C. (3-day)): 7.5
- HPLC Assay Results (External Standard) ([4]; H2O, ambient (3-day)): 98.4
- stability in water ([4]; free base in water, after 3 days): complete degradation
- LAF237 remaining ([4]; peroxide sample, after three days): 3%
- stability under acidic conditions ([4]; room temperature): good stability
- pKa [5]: 7.86

Compound: Hydrogen Fumarate Salt of Vildagliptin [Example 4]
- HPLC Assay Results (External Standard) [2, 6]: 96.0
- HPLC Assay Results (External Standard) [2, 7]: 94.6
- HPLC Assay Results (External Standard) [2, 8]: 96.1
- HPLC Assay Results (External Standard) [2, 9]: 98.2
- HPLC Assay Results (External Standard) [2, 10]: 98.9
- HPLC Assay Results (External Standard) [2, 11]: 99.5
- HPLC Assay Results (External Standard) ([2]; Bulk, 2 weeks at 50/75% r.h.): 98.9
- HPLC Assay Results (External Standard) ([2]; Bulk, 2 weeks at 50° C.): 99.0
- HPLC Assay Results (External Standard) ([2]; Bulk, t0): 104.0
- stability compared with the free base of vildagliptin [2]: better stability
- Dissociation Constant (pKa's), first value [1]: 3.03
- Dissociation Constant (pKa's), second value [1]: 4.47
- HPLC Assay Results (External Standard) ([4]; Bulk, 80° C. (3-day)): 98.8
- HPLC Assay Results (External Standard) ([4]; Bulk, ambient (3-day)): 102.2
- HPLC Assay Results (External Standard) ([4]; H2O, 80° C. (3-day)): 98.9
- HPLC Assay Results (External Standard) ([4]; H2O, ambient (3-day)): 101.9
- stability in water ([4]; water at 80° C. after 3 days): remain stable
